Reference: the CombiSolv-Exp solvation set (Vermeire and Green 2021)
Each block holds one molecule with its values, some of them ahead of it.

Assay: solvent given as SMILES

solvation free energy, 298 K (in C=CCCCCCCCCCCCCCC): -6.96 kcal/mol
solvation free energy, 298 K (in CCCCCCCCO): -10.2 kcal/mol
solvation free energy, 298 K (in O): -7.35 kcal/mol
Compound: Cc1ccc(C(=O)O)cc1

solvation free energy, 298 K (in O): -19.6 kcal/mol
Compound: COc1ncnc(NS(=O)(=O)c2ccc(N)cc2)c1OC

solvation free energy, 298 K (in O): -6.55 kcal/mol
Compound: COCCN

solvation free energy, 298 K (in O): -1.91 kcal/mol
Compound: CCCCCCCCCC(=O)OC

solvation free energy, 298 K (in CCCCCC): -7.15 kcal/mol
Compound: COc1ccc(O)cc1

solvation free energy, 298 K (in O): -3.38 kcal/mol
Compound: C=CC(C)(CCC=C(C)C)OC(=O)CCC (configuration not stated)

solvation free energy, 298 K (in O): -4.28 kcal/mol
Compound: CCCCC(C)O (configuration not stated)

solvation free energy, 298 K (in O): 3.57 kcal/mol
Compound: CCCCC(C)CCC (configuration not stated)

Second part, the molecule before the results:

Compound: CCCCN(CCCC)N=O
solvation free energy, 298 K (in CC(C)CC(C)(C)C): -7.84 kcal/mol
solvation free energy, 298 K (in O): -4.91 kcal/mol

Compound: CCC=CCC=CCC=CCCCCCCCC(=O)OC
solvation free energy, 298 K (in O): -3.47 kcal/mol

Compound: Cc1ccccc1C(=O)O
solvation free energy, 298 K (in C1CCOC1): -9.3 kcal/mol
solvation free energy, 298 K (in C1COCCO1): -9.26 kcal/mol
solvation free energy, 298 K (in CC(C)(C)O): -9.12 kcal/mol
solvation free energy, 298 K (in CC(C)CCO): -8.95 kcal/mol
solvation free energy, 298 K (in CC(C)CO): -8.82 kcal/mol
solvation free energy, 298 K (in CC(C)O): -9.06 kcal/mol
solvation free energy, 298 K (in CC(C)OC(C)C): -8.56 kcal/mol
solvation free energy, 298 K (in CCC(C)O): -9.01 kcal/mol
solvation free energy, 298 K (in CCCC(C)O): -8.98 kcal/mol
solvation free energy, 298 K (in CCCCCCCCCCO): -8.7 kcal/mol
solvation free energy, 298 K (in CCCCCCCCO): -8.76 kcal/mol
solvation free energy, 298 K (in CCCCCCCO): -8.81 kcal/mol
solvation free energy, 298 K (in CCCCCCO): -8.86 kcal/mol
solvation free energy, 298 K (in CCCCCO): -8.91 kcal/mol
solvation free energy, 298 K (in CCCCCOC(C)=O): -8.7 kcal/mol
solvation free energy, 298 K (in CCCCO): -8.96 kcal/mol
solvation free energy, 298 K (in CCCCOC(C)=O): -8.76 kcal/mol
solvation free energy, 298 K (in CCCO): -9.01 kcal/mol
solvation free energy, 298 K (in CCO): -9.12 kcal/mol
solvation free energy, 298 K (in CCOC(C)=O): -8.91 kcal/mol
solvation free energy, 298 K (in CCOCC): -8.95 kcal/mol
solvation free energy, 298 K (in COC(C)=O): -8.92 kcal/mol
solvation free energy, 298 K (in O): -5.87 kcal/mol

Compound: CCCCCCCCCCCCCCCCCCCCCCCCC
solvation free energy, 298 K (in CC(=O)N(C)C): -17.1 kcal/mol
solvation free energy, 298 K (in CC(C)(C)O): -15.3 kcal/mol
solvation free energy, 298 K (in CN(C)C=O): -17.1 kcal/mol
solvation free energy, 298 K (in COC(C)(C)C): -17.1 kcal/mol
solvation free energy, 298 K (in O): 5.39 kcal/mol

Compound: Cc1cc(C)nc(NS(=O)(=O)c2ccc(N)cc2)n1
solvation free energy, 298 K (in O): -20 kcal/mol

Compound: O=C(O)c1cc([N+](=O)[O-])cc([N+](=O)[O-])c1
solvation free energy, 298 K (in C1CCOC1): -14.9 kcal/mol
solvation free energy, 298 K (in C1COCCO1): -14.6 kcal/mol
solvation free energy, 298 K (in CC(C)CCO): -13.8 kcal/mol
solvation free energy, 298 K (in CC(C)CO): -13.7 kcal/mol
solvation free energy, 298 K (in CC(C)O): -14.1 kcal/mol
solvation free energy, 298 K (in CC(C)OC(C)C): -13 kcal/mol
solvation free energy, 298 K (in CCC(C)O): -13.9 kcal/mol
solvation free energy, 298 K (in CCCC(C)O): -13.9 kcal/mol
solvation free energy, 298 K (in CCCCCCCCCCO): -13.6 kcal/mol
solvation free energy, 298 K (in CCCCCCCCO): -13.7 kcal/mol
solvation free energy, 298 K (in CCCCCCCO): -13.7 kcal/mol
solvation free energy, 298 K (in CCCCCCO): -13.8 kcal/mol
solvation free energy, 298 K (in CCCCCO): -13.9 kcal/mol
solvation free energy, 298 K (in CCCCCOC(C)=O): -13.7 kcal/mol
solvation free energy, 298 K (in CCCCO): -14 kcal/mol
solvation free energy, 298 K (in CCCCOC(C)=O): -13.9 kcal/mol
solvation free energy, 298 K (in CCCO): -14.2 kcal/mol
solvation free energy, 298 K (in CCO): -14.4 kcal/mol
solvation free energy, 298 K (in CCOC(C)=O): -14.2 kcal/mol
solvation free energy, 298 K (in CCOCC): -13.9 kcal/mol
solvation free energy, 298 K (in CN(C)C=O): -14.8 kcal/mol
solvation free energy, 298 K (in O): -11.3 kcal/mol

Compound: CN(C)C(=O)Nc1ccc(Cl)cc1
solvation free energy, 298 K (in C1CCOC1): -13.7 kcal/mol
solvation free energy, 298 K (in CC(C)CC(C)(C)C): -9.58 kcal/mol
solvation free energy, 298 K (in CC(C)CCO): -13.1 kcal/mol
solvation free energy, 298 K (in CC(C)CO): -13.1 kcal/mol
solvation free energy, 298 K (in CC(C)O): -13.1 kcal/mol
solvation free energy, 298 K (in CCC(C)O): -13.1 kcal/mol
solvation free energy, 298 K (in CCCC(C)O): -13 kcal/mol
solvation free energy, 298 K (in CCCCC(CC)CO): -12.8 kcal/mol
solvation free energy, 298 K (in CCCCCC): -9.81 kcal/mol
solvation free energy, 298 K (in CCCCCCC): -9.75 kcal/mol
solvation free energy, 298 K (in CCCCCCCC): -9.79 kcal/mol
solvation free energy, 298 K (in CCCCCCCCCC): -9.8 kcal/mol
solvation free energy, 298 K (in CCCCCCCCCCO): -12.8 kcal/mol
solvation free energy, 298 K (in CCCCCCCO): -13 kcal/mol
solvation free energy, 298 K (in CCCCCCO): -13.2 kcal/mol
solvation free energy, 298 K (in CCCCCO): -13.2 kcal/mol
solvation free energy, 298 K (in CCCCO): -13.3 kcal/mol
solvation free energy, 298 K (in CCCCOC(C)=O): -12.8 kcal/mol
solvation free energy, 298 K (in CCCCOCCCC): -11.6 kcal/mol
solvation free energy, 298 K (in CCCO): -13.3 kcal/mol
solvation free energy, 298 K (in CCO): -13.4 kcal/mol
solvation free energy, 298 K (in CCOC(C)=O): -13.1 kcal/mol
solvation free energy, 298 K (in CO): -13.7 kcal/mol
solvation free energy, 298 K (in COC(C)=O): -13.1 kcal/mol
solvation free energy, 298 K (in ClC(Cl)(Cl)Cl): -11.1 kcal/mol
solvation free energy, 298 K (in ClC(Cl)Cl): -13.3 kcal/mol
solvation free energy, 298 K (in ClCCCl): -13 kcal/mol
solvation free energy, 298 K (in ClCCl): -13.3 kcal/mol
solvation free energy, 298 K (in O): -10.4 kcal/mol

Compound: CN(C)c1ccccc1
solvation free energy, 298 K (in CCCCCCCCCCCCCCCC): -6.4 kcal/mol
solvation free energy, 298 K (in O): -3.45 kcal/mol

Compound: CCCCc1ccccc1
solvation free energy, 298 K (in C1CCOC1): -7.33 kcal/mol
solvation free energy, 298 K (in CC#N): -6.1 kcal/mol
solvation free energy, 298 K (in CC(C)O): -5.98 kcal/mol
solvation free energy, 298 K (in CCC(C)=O): -6.73 kcal/mol
solvation free energy, 298 K (in CCCCCCC): -6.58 kcal/mol
solvation free energy, 298 K (in CCCCCCCCCCCCCCCC): -6.44 kcal/mol
solvation free energy, 298 K (in CCO): -5.72 kcal/mol
solvation free energy, 298 K (in CO): -5.81 kcal/mol
solvation free energy, 298 K (in O): -0.37 kcal/mol
solvation free energy, 298 K (in O=Cc1ccco1): -5.99 kcal/mol
solvation free energy, 298 K (in OCCOCCO): -4.81 kcal/mol

Compound: COc1ccc2c(c1)c(CC(=O)O)c(C)n2C(=O)c1ccc(Cl)cc1
solvation free energy, 298 K (in O): -15.1 kcal/mol
